Source: US20070155771A1, “Methods and means for treating protein conformational disorders” (priority 2003, published 2007)

System: mTOR-dependent TOP-translation
Test: Luciferase reporter assay with non-typical TOP sequence in COS-7 cells co-transfected with Q23 or Q74
Format: cell-based, African green monkey
Experimental: PC12 cells stably expressing Q23 or Q74 were transfected with a luciferase construct having a 5′ untranslated region from the eEF2 gene containing a terminal oligopyrimidine tract (TOP-luciferase) or without the TOP sequence (Control-luciferase) along with β-galactosidase (to control transfection efficiency). Transfected cells were maintained in serum free medium with doxycycline for 36 hours following which the cells were stimulated with 15% serum with or without rapamycin for 3 h. Cells were then lysed and luciferase assays were performed according to standard protocol. COS-7 cells were co-transfected with Q23 or Q74 with control- or TOP-luciferase along with β-gal and experiments were performed as above. […] Experiments were performed in sextuplicate and repeated several times.
The data in FIG. 11C is represented as explained above for FIG. 10C.

Substance: rapamycin
- rapamycin-dependent reduction in luciferase activity (non-typical TOP sequence) (COS-7 cells transfected with Q23): 23%
- rapamycin-dependent reduction in luciferase activity (non-typical TOP sequence) (COS-7 cells transfected with Q74): no such effect
